Reference: ChEMBL document CHEMBL3507680, “University of Dundee, Gates Library screen for HepG2 cell viability”

Assay: Human HepG2 cell viability assay in 384 well format
Type: toxicity, cell-based
Design: dose 125 nL, time 70.5 hour; cytotoxicity at 70.5 h: concentration not given beside the values
Details: HepG2 cells, read-out: Inhibition

Compound | cytotoxicity at 70.5 h [%]
CN(Cc1ccccc1O)CC1CCCN(CCc2ccc(Cl)cc2)C1 (stereo unspecified) | -2.45
Cc1cc(=O)[nH]c(=O)n1Cc1ccccc1 | -7.18
O=C(Cc1ccco1)N1C[C@@H]2COC[C@]2(COCC2CCOCC2)C1 | -7.33
CC(C)[C@H]1CN(Cc2ccccn2)C[C@@H]1NS(=O)(=O)C1CC1 | -3.34
CCCOC1CCCN(c2ncnc3c2CCN(C(=O)C2CC2)C3)C1 (stereo unspecified) | -7.75
COc1cc2c(cc1CNC(=O)C(C)n1ccnc1C(C)C)CCC2 (stereo unspecified) | -11.2
Cc1nc(CN2CCN(c3cc(CCN)ncn3)CC2)cs1 | -2.73
Cc1nc(C)n(CCCNc2ncnc(C)c2C)n1 | 18
Cc1nn(CCO)c(C)c1-c1cc(C(C)(C)C)nc(N)c1C#N | 16.9
Cc1ccnc(N2Cc3cnn(Cc4ccc(F)cc4)c3C2)n1 | 15.1
N[C@H]1CN(C(=O)CCCc2ccc(F)cc2)C[C@@H]1C1CC1 | -6.92
CN(C)CCCN(C)C1CCN(c2cccc(-c3cscn3)c2)CC1 | -2.04
O=C(O)C1(Cc2ccccc2F)CCCN(c2ncnc3[nH]ccc23)C1 (stereo unspecified) | -0.879
CC(=O)NCc1cc2n(n1)CCN(Cc1cccc(Cl)c1Cl)C2 | 0.275
CC(C)c1noc(CN(C)C(=O)c2ncn[nH]2)n1 | 3.61
CC1CCc2n[nH]c(C(=O)NCCc3ccco3)c2C1 (stereo unspecified) | -2.98
Cc1c(C(=O)N2CCCC(O)(CN(C)C)CC2)c2cc(O)ccc2n1C (stereo unspecified) | 13.3
Cc1nnc(SCCNc2cc(C3CC3)ncn2)s1 | -5.85
CNS(=O)(=O)CCN1CC(c2ccccc2)(c2ccccc2)CCC1=O | 5.38
CC(CN1CCC(CCO)CC1)n1cnc2ccccc21 (stereo unspecified) | -11.4
COc1ccc(-n2cccn2)c(CN2CCC(O)(CO)CC2)c1 | -11.1
CCCc1nnc(NCCc2noc(C3CCCC3)n2)o1 | 9.03
NC(=O)c1nc(CN2CCOC(C(F)(F)F)C2)no1 (stereo unspecified) | 11.5

Compound | cytotoxicity at 70.5 h [%]
COc1ccc(-n2nc(C)c(C(C)=O)c2C)cc1CO | 0.889
CC(NC(=O)CCCn1cnc2ccccc2c1=O)c1ncn[nH]1 (stereo unspecified) | -15.2
CCn1ncc2c1NC(=O)CC2c1cnc(NCc2ccccc2)nc1 (stereo unspecified) | 14.7
Cc1cc(CN(C)C(=O)c2cccc(CCC(C)(C)O)c2)no1 | -7.67
CCNc1ncc(C(=O)N(C)CCc2nc3cc(Cl)ccc3[nH]2)cn1 | -16.7
Cc1ccc(Oc2ncccc2CNC2CCSCC2)cn1 | -8.64
CCC1CN(C(=O)c2ccccc2N2CCOCC2)CCN1C(C)C (stereo unspecified) | -1.59
O=S1(=O)COCCN1Cc1ccc(Cl)c(Cl)c1 | -6.71
O=C1NCCCc2[nH]c(Cc3ccc(F)cc3)nc21 | -6
Cc1ccc(OCCN(C)Cc2nccn2C)c(C)c1 | -9.5
OCc1csc(N2C[C@@H](CN3CCCCCC3)[C@@H](CO)C2)n1 | -7.86
CC(=O)N[C@@H]1CN(Cc2ccco2)C[C@H]1c1ccc(C)o1 | -6.07
Cc1nc[nH]c1CN1C[C@@H]2CC[C@H](C1)N(C(=O)CCn1cncn1)C2 | -15
c1ccc(Cc2noc(-c3ccc(NCC4COCCO4)nc3)n2)cc1 (stereo unspecified) | -5.85
CCN1CCCC1Cn1ccc2ccc(C(=O)OC)cc2c1=O (stereo unspecified) | -8.61
CN(C)S(=O)(=O)N1C[C@@H]2CC[C@H](C1)N(Cc1ccc3c(c1)OCCO3)C2 | -3.43
CCC[C@H]1CN(c2cncc(C(=O)N(C)C)n2)C[C@@H]1N(C)C | 19.4
COc1cccc(C(=O)C2CCCN(c3nccc(N)n3)C2)c1 (stereo unspecified) | -3.78
O=C1CCC2(CCN(Cc3ccoc3)CC2)N1OCc1ccccc1F | -7.61
OCCCN1CCOC(c2ccc(F)cc2)C1 (stereo unspecified) | -6.31
Cn1c(-c2ccc(F)cc2)cn2cc(C(=O)N3CCC(N)C3)nc2c1=O (stereo unspecified) | -9.46
COc1ncc(CN2CCOC(Cc3cccc4ccccc34)C2)cn1 (stereo unspecified) | 20
CC(=O)N1CCN(Cc2ccc(C(F)(F)F)cc2F)CC(O)C1 (stereo unspecified) | -10.5

Compound | cytotoxicity at 70.5 h [%]
CCOc1ccc(-c2c(C#N)c(N)nc3c2COCC3)cn1 | -15
COc1ccc(NC2(C(=O)N3CCn4cncc4C3)CCCC2)cc1 | -11.8
O=C(c1cn[nH]c1)N1CCC2(CCCN(Cc3ccc(F)c(F)c3)C2)C1 (stereo unspecified) | -8.34
COC(=O)CN1CCN(c2nc3c(s2)c(C)nn3C)C(C)C1=O (stereo unspecified) | 3.44
CC(c1cccc(-c2ccc(C(=O)O)cc2Cl)c1)N(C)C (stereo unspecified) | -1.21
O=C(O)CNc1cc(-c2nccnc2N2CCCC2)c2cc[nH]c2n1 | 0.303
Cc1ccnn1CCN1CCCC2(CCC(=O)N(C3CCCC3)C2)C1 (stereo unspecified) | -21
Cc1cccc(OC2CCN(c3nc(N)nc4[nH]cnc34)CC2)c1 | -1.39
CCc1nccn1CC(=O)N1C[C@H]2CC[C@@H]1CN(S(=O)(=O)N(C)C)C2 | 1.78
Cc1cccc(C(C(=O)NCCCc2ccncc2)N(C)C)c1 (stereo unspecified) | -4.41
CCC(C)N(Cc1cccnc1)C(=O)c1ccc(OC)cc1O (stereo unspecified) | -9.19
Cc1cccnc1N1CCC(c2nccn2Cc2cscn2)CC1 | -0.624
Cc1nc2c(c(=O)n1C)CN(C(=O)C1CCCN(C(=O)N(C)C)C1)C2 (stereo unspecified) | -0.169
COCC(C)N(Cc1ccccc1OC)C(=O)c1cc(C)[nH]c(=O)c1 (stereo unspecified) | -5.15
OC[C@H]1CN(Cc2c(Cl)cncc2Cl)C[C@H]1CN1CCOCC1 | -10.9
CN(C)C(=O)N1CCCn2nc(CNC(=O)CCc3cccs3)cc2C1 | 0.772
CC(=O)C(C)CC(=O)N(Cc1cccc(C)c1)C(C)C (stereo unspecified) | -1.29
Cc1nc(C)n(CCNC2CCN(c3ncnc4c(C)csc34)CC2)n1 | -5.4
CN1CCCC2(CCN(c3cc(C(F)(F)F)nc(N(C)C)n3)C2)C1=O (stereo unspecified) | 10.3
O=C1O[C@@H]2CN(Cc3cc4ccccc4o3)C[C@@H]2N1Cc1ccccn1 | -4.9
Cc1cc(NC(=O)c2ccc(N3CCOCC3)c(C)c2)[nH]n1 | 8.26
Cc1c(C(C)NCc2cnn(C)c2)cnn1-c1ccccc1 (stereo unspecified) | 2.44
COc1ccccc1Oc1ncccc1CNC(=O)C(O)C(F)(F)F (stereo unspecified) | -5.77

Compound | cytotoxicity at 70.5 h [%]
CCS(=O)(=O)N1CCC2(CCCN(Cc3ccc(F)c(F)c3)C2=O)C1 (stereo unspecified) | 1.7
Cc1nc(C(C)C)ncc1C(=O)N1CCC(c2ccccc2C(=O)O)C1 (stereo unspecified) | -3.24
Nc1cc(CC2COc3ccccc3C2)ccn1 (stereo unspecified) | 11.8
CC(C)c1nccc(CN(C)Cc2cnn(-c3ccccc3)c2)n1 | 26.7
CSc1nccc(N2CCC(=O)N(CC3CC3)C(C(C)C)C2)n1 (stereo unspecified) | 54.1
Nc1nccc(N2CCC(c3cc(Cc4ccccc4)n[nH]3)CC2)n1 | 31.5
COc1ccc(C2CC(=O)NCc3nc(N(C)C)sc32)c(O)c1 (stereo unspecified) | 2.48
Cc1noc(C)c1CCCNC(=O)C1CCN(C(=O)C2CC2)CC1 | 24.8
CCNc1ccnc(NC2CCN(S(C)(=O)=O)CC2)n1 | -14.6
Cc1nccnc1N1C[C@H](NC(=O)CNS(C)(=O)=O)[C@@H](C2CC2)C1 | -3.36
Cc1nnc(CN2CCOC(c3ccc(Cl)c(Cl)c3)C2)o1 (stereo unspecified) | -3.49
CCC(Nc1ncnc2sc(C(=O)O)c(C)c12)c1ccnn1C (stereo unspecified) | -12.8
Cc1ccc(-c2noc(C(O)CC(C)C)n2)nn1 (stereo unspecified) | -3.31
Cc1ncsc1C(=O)NCc1cc2n(n1)CCN(C(=O)N(C)C)C2 | -11.4
CC(C)Cc1ncc2c(n1)CN(c1nc(N(C)C)nc3c1CCCC3)C2 | -0.189
CCC(CO)N(Cc1ccco1)C(=O)c1ccc(F)cc1Cl (stereo unspecified) | -2.27
CCc1ncc2c(n1)CN(c1cc(NC3CC3)nc(N)n1)C2 | -8.23
C[C@@H]1CN(S(=O)(=O)N2CCOCC2)C[C@@]1(O)C1CC1 | -2.98
CCn1nc(C)c(NC(=O)CN2CCC(c3ccccc3Cl)C2)c1C (stereo unspecified) | 21.2
COc1ccccc1OC1CCN(C(=O)C2CCCN(C)C2)CC1 (stereo unspecified) | -8.14
CCC/C=C/c1ccc(CN2CCCC2)cn1 | 48.4
COCCCN1CC2(CCC1=O)CCN(Cc1cc(C(C)C)no1)CC2 | 29.5
Cc1nccn1CCC1CCCCN1C(=O)c1ccc2nonc2c1 (stereo unspecified) | -1.05

Compound | cytotoxicity at 70.5 h [%]
Cc1ccc(N2CC[C@@H](NC(=O)c3cnccn3)[C@H](O)C2)nn1 | -7.78
Cc1nccn1Cc1nnc(C2CCCN(c3ncccc3F)C2)n1C (stereo unspecified) | -17.5
Cc1cccnc1CN1CCN(CC(=O)N(C)C)[C@@H]2CS(=O)(=O)C[C@@H]21 | -5.23
Cc1ccc(NC(=O)[C@H]2C[C@H](C(=O)O)CN(CC(C)C)C2)cn1 | -11.2
CCCn1nccc1C(=O)N1CCCC(C(=O)CCc2ccccc2)C1 (stereo unspecified) | -2.61
CC(C)c1cc(C2CCCN2C(=O)c2cn3ccsc3n2)no1 (stereo unspecified) | -5.17
CN(C)Cc1ccc(C2CCCCN2C(=O)c2ncccc2O)cc1 (stereo unspecified) | -3.45
CC1=CC[C@@H]2CN(C(=O)c3ccc(-c4nc[nH]n4)cc3)C[C@@H]2C1 | 11
CN1CCC(Cc2nc(-c3cnccn3)n(C3CCS(=O)(=O)C3)n2)CC1 (stereo unspecified) | 0.375
Cc1cc(C)c(C(=O)N(CCO)Cc2ccccc2F)c(=O)[nH]1 | -8.86
Cc1cc(NCCN2CCNC2=O)nc2cc3c(cc12)CCC3 | -4.19
CCOc1ccccc1C(C(=O)O)N(C)Cc1cc(C)[nH]n1 (stereo unspecified) | -5.35
O=C(O)C(c1ccc2[nH]ccc2c1)N1CCN(c2cnccn2)CC1 (stereo unspecified) | -3.87
Cc1cc(N2CCCN(CCc3ccccc3)CC2)ccn1 | -5.44
O=C1COc2cc(OC[C@@H]3CCCN4CCCC[C@H]34)ccc21 | 14.3
N#Cc1cc2c(=O)n(CC(O)c3cccc(O)c3)ccc2[nH]c1=O (stereo unspecified) | -6.53
O=C1[C@@H]2CN(Cc3ccccn3)C[C@H]2CCN1c1cncnc1 | -4.74
Cc1cc(CN2CC[C@]3(C[C@@H](OCC(=O)N(C)C)CO3)C2)no1 | -6.96
CC(C)CCN1CCc2[nH]nc(C(=O)N3CC=CC3)c2C1 | -6.59
